Measurements as given in US8916376B2, “Metal-binding peptides” (priority 2007, dated 2014).

Key:
E. coli BLR(DE3) cells [1] = experiment: Multi-step selection of E. coli clone library under toxic agents; apparent MIC; assay type: cell-based; conditions: for concentration above which no bacterial growth was observed: 24 hours selection cycle, FIG. 2
Excerpt: The pCRRL1 library was transformed into E. coli BLR(DE3) cells, which carry a T7 RNA polymerase gene under control of IPTG-regulated lacUV5 promoter. The number of individual clones was estimated to be ˜10^5. The clone library was allowed to grow for 4 hrs in order to obtain several replicates of it, and then split into parts intended for parallel evolution experiments using different toxic agents. Expression of the randomized ORF was induced by IPTG, and the multi-step selection experiment was started by adding appropriate amounts of NiCl2, AgNO3, or K2TeO3 to the cell cultures, as shown in FIG. 2 with the selection of the E. coli clones resistant to NiCl2 (a), AgNO3 (b), and K2TeO3 (c). Large filled circles represent bacterial cultures successfully growing at indicated concentrations of each toxic agent. […] Black arrows point to the most resistant bacterial cultures, from which individual clones have been isolated for further studies of their toxicity tolerance. Grey arrow marks the culture, which was used as a non-adapted control in tests of the bacterial resistance towards nickel, silver, and tellurite. […] A concentration gradient of the toxic agents was chosen to cover a range within which an MIC was expected to be found. Thus, at every step the selective pressure was adjusted depending on the achieved level of the toxicity tolerance to keep the evolving bacterial populations under subinhibitory conditions. Substantial increase in bacterial resistance to Ni^2+, Ag^+, and TeO3^2− was observed during four, five, and seven consecutive selection cycles, respectively. After that, no further change in toxicity tolerance was detected. During the selection procedure, the apparent MIC values increased from 4 to 10 mM NiCl2, from 0.03 to 0.90 mM AgNO3, and from 0.7 to 20 μM K2TeO3. Eight clones were isolated from each of the three evolved resistant populations by plating. These were tested for the dependence of growth on mini-gene expression by measuring OD600 after 24 hrs of cultivation in the presence of corresponding toxic agent, with and without IPTG. […] All eight Ni^2+-resistant clones harbored the same plasmid (designated as pCRRL1-N94-01) with a mini-gene variant coding for the peptide […] (SEQ ID NO 1), a structural model of which is shown in FIG. 2a. In addition, a 9-bp deletion was detected in the spacer region between the ORF and the transcription terminator. However, since no important element of the mini-gene operon was located there, the deletion was unlikely to affect the peptide expression. […] All TeO3^2−-resistant clones carried a version of plasmid pCRRL1-T507-01 that has a 225-bp deletion of the whole mini-gene transcriptional unit together with adjacent downstream sequence. This deletion obviously abolishes T7 RNA polymerase activity on the plasmid, making it irresponsive to IPTG induction.

E. coli BLR(DE3) cells [2] = experiment: Dependence of growth under toxic agent on mini-gene expression (OD600, with and without IPTG); assay type: cell-based; conditions: for effect of IPTG-induced mini-gene expression on growth (OD600): resistant clones carrying the mini-gene, 24 hrs cultivation with the corresponding toxic agent, with and without IPTG
Excerpt: The pCRRL1 library was transformed into E. coli BLR(DE3) cells, which carry a T7 RNA polymerase gene under control of IPTG-regulated lacUV5 promoter. The number of individual clones was estimated to be ˜10^5. The clone library was allowed to grow for 4 hrs in order to obtain several replicates of it, and then split into parts intended for parallel evolution experiments using different toxic agents. Expression of the randomized ORF was induced by IPTG, and the multi-step selection experiment was started by adding appropriate amounts of NiCl2, AgNO3, or K2TeO3 to the cell cultures, as shown in FIG. 2 with the selection of the E. coli clones resistant to NiCl2 (a), AgNO3 (b), and K2TeO3 (c). Large filled circles represent bacterial cultures successfully growing at indicated concentrations of each toxic agent. […] Black arrows point to the most resistant bacterial cultures, from which individual clones have been isolated for further studies of their toxicity tolerance. Grey arrow marks the culture, which was used as a non-adapted control in tests of the bacterial resistance towards nickel, silver, and tellurite. […] A concentration gradient of the toxic agents was chosen to cover a range within which an MIC was expected to be found. […] After that, no further change in toxicity tolerance was detected. […] In addition, a 9-bp deletion was detected in the spacer region between the ORF and the transcription terminator. […]
The existence of a positive correlation between the level of mini-gene expression and the extent of toxicity tolerance would strongly argue in favor of a role for the mini-gene in the mechanism of stress resistance of the evolved clones. […] Comparison of the bacterial growth parameters measured in the presence and absence of IPTG made it possible to distinguish the specific effect of mini-gene expression on culture survival and propagation from the basal resistance to the hostile environment acquired through adaptive genomic mutations. […]

[3] = E. coli BLR(DE3) pCRRL1 library, start of the selection procedure
[4] = evolved resistant population, end of the selection procedure

Row | Compound | concentration above which no bacterial growth was observed (E. coli BLR(DE3) cells [1]) | apparent MIC (E. coli BLR(DE3) cells [1]; [3]) [µM] | apparent MIC (E. coli BLR(DE3) cells [1]; [4]) [µM] | effect of IPTG-induced mini-gene expression on growth (OD600) (E. coli BLR(DE3) cells [2]) | concentration at which culture was able to grow (E. coli BLR(DE3) cells [2]; non-adapted control culture, insensitive to IPTG)
1 | O=[Te]([O-])[O-].[K+].[K+] [K2TeO3] | above 18 mM | 0.7 | 20 | – | –
2 | O=[N+]([O-])[O-].[Ag+] [AgNO3] | above 0.9 mM | 30 | 900 | – | –
3 | MSHATATPASRRRLPLRS [SEQ ID NO 2, 18-mer peptide encoded by the mini-gene of plasmid pCRRL1-A226-01 in Ag+-resistant E. coli clones] | – | – | – | not affected by IPTG | –
4 | [Cl][Ni][Cl] [NiCl2] | – | 4000 | 10000 | – | below 4 mM
5 | MSHAYFVCNRCDSSNHSAHE [SEQ ID NO 1, 20-mer peptide encoded by the mini-gene of plasmid pCRRL1-N94-01 in Ni2+-resistant E. coli clones] | – | – | – | Significant IPTG-induced growth improvement | –
